Experimental data: patent publication US5238689A, “Use of ruthenium red as immunosuppressive agents” (Procept, Inc., priority 1992, dated 1993)
Where “and” joins values, the source holds several entries; their conditions need not be identical. Equal entries are not always repeated. Where two headings read alike, the source gives them in different places.

How the values were obtained:
[1] = test system: transfected Jurkat T cells; assay: Calcium influx into activated human T cells (Fluo-3AM); format: cell-based
Method: To uncover the mode of action of Ruthenium Red, additional experiments were performed. Because it is known that this compound effects Ca^2+ levels in cells, we examined whether Ruthenium Red prevents the rise in intracellular Ca^2+ that accompanies T cell activation. The Ca^2+ -sensitive dye, Fluo-3AM (Molecular Probes, Inc., Eugene, Oreg.), can be used to detect intracellular Ca^2+. For these studies, transfected Jurkat T cells were incubated with Fluo-3AM (1 μM) for one hour at room temperature. The cells were then washed three times and incubated in 1 ml. volumes (5×10^5 cells) with various agents to trigger T cell activation and thus Ca^2+ uptake. Ruthenium Red was added at a concentration of 1 μg/ml (1.27 μM).

[2] = test system: human peripheral blood lymphocytes (PBL's); details: for 3H-thymidine uptake / % Inhibition: Ruthenium Red 0.2 μg/ml, 3 days
Method: For these studies, human peripheral blood lymphocytes (PBL's) were incubated in vitro with varying concentrations of IL-2 and in the presence or absence of Ruthenium Red (0.2 μg/ml). After 3 days of culture, ^3 H-thymidine was added for 16 hr, cells were harvested, and the filters counted.

[3] = test system: T cells activated with HSV-1; details: 1 μg/ml
Method: In another study, T cells were activated with HSV-1 as described before and the Ruthenium Red (1 μg/ml) was added either at the start of culture (time 0) or after various delays.

[4] = test system: human T cell (PBL) proliferation; details: for % Inhibition: mean of 5 separate experiments
[5] = test system: specific antibodies to cytochrome c; details: 4 mg/kg i.p. daily, 2 days before and 12 days after immunization; day 23
[6] = test system: smooth muscle plasma membrane of pig stomach cells; details: cited from earlier work
[7] = test system: T cell responses to cytochrome c
Method: For these studies, B10.A mice were treated with Ruthenium RED as before and immunized with cytochrome c. On day 7 after challenge with antigen, draining lymph nodes were removed and single cell suspensions of lymphocytes were prepared. The lymphocytes were counted to estimate overall yields and were cultured in vitro with antigen (100 μg/ml) for three days prior to addition of tritiated thymidine to quantitate proliferation.

Lewis lung carcinoma = details: mice treated with the dye; cited from earlier work
[8] = test system: specific antibody to cytochrome c
Method: The remaining mice in this study continued on their assigned treatment and were bled on day 23, as in the original pilot study, and sera were tested for specific antibodies in the ELISA. The data has been expressed as the mean of the endpoint dilution.

T cells = details: mean of 4 determinations
Method: Alloreactivity was measured by stimulating T cells from one donor with inactivated lymphocytes from a second donor. The inhibition values represent the means of 4 separate determinations.

[9] = test system: mitochondria of rat liver cells; details: cited from earlier work

**Q.** For `CNc1ccc2oc(C[C@H]3O[C@@]4(CC[C@H]3C)O[C@H]([C@H](C)C(=O)c3ccc[nH]3)[C@H](C)C[C@H]4C)nc2c1C(=O)O` [Calcium ionophore, reference compound], which “% Fluorescent cells” value ([1]; Calcium ionophore, without Ruthenium Red) is on record?
**A.** 84.6%

**Q.** Which results are given for `N.N.N.N.N.N.N.N.N.N.N.N.N.N.[Cl-].[Cl-].[Cl-].[Cl-].[Cl-].[Cl-].[O-2].[O-2].[Ru+3].[Ru+3].[Ru+4]` [Ruthenium Red]?
**A.** 3H-thymidine uptake ([2]; IL-2 0.01 U/ml): 1,154 cpm; % Inhibition ([2]; IL-2 0.01 U/ml): 80%; 3H-thymidine uptake ([2]; IL-2 1 U/ml): 2,805 cpm; % Inhibition ([2]; IL-2 1 U/ml): 92%; 3H-thymidine uptake ([2]; IL-2 100 U/ml): 3,839 cpm; % Inhibition ([2]; IL-2 100 U/ml): 88%; proliferative response induced by IL-2 alone ([2]; PBL's): can be inhibited by this compound; percentage of cells staining positively with the dye (intracellular Ca2+) ([1]; 1 μg/ml (1.27 μM)): major reduction in the percentage of cells staining positively with the dye; % Fluorescent cells ([1]; Activation (anti-CD2), Ruthenium Red 1 μg/ml (1.27 μM)): 17.2%; latest time of addition after triggering with antigen still producing maximal inhibition [3]: ≤ 20 h; % Inhibition ([3]; time of addition 0 hr): 95%; % Inhibition ([3]; time of addition 1 hr): 97%; % Inhibition ([3]; time of addition 2 hr): 96%; % Inhibition ([3]; time of addition 4 hr): 92%; % Inhibition ([3]; time of addition 20 hr): 86%; % Inhibition ([3]; time of addition 33 hr): 58%; % Inhibition ([4]; 0.01 μg/ml (0.01 μM)): 17%; % Inhibition ([4]; 0.1 μg/ml (0.13 μM)): 31%; % Inhibition ([4]; 0.2 μg/ml (0.25 μM)): 60%; % Inhibition ([4]; 1.0 μg/ml (1.27 μM)): 89%; % Inhibition ([4]; 2.5 μg/ml (3.18 μM), 3.18 µM): ~90% and 96%; IC50 ([4]; read-out: IC50, inhibition of T cell proliferation, antigen-stimulated human PBL): ~200 nM; reduction in antibody levels compared to control mice who received water [5]: 70%; Ca2+ efflux [6]: inhibit Ca^2+ efflux; effect on calcium ion transport ([6]; smooth muscle plasma membrane of pig stomach cells): affect calcium ion transport; Cell Yield (draining lymph nodes) ([7]; mouse 14, day 7): 0.26 × 10^6; Cell Yield (draining lymph nodes) ([7]; mouse 16, day 7): 0.81 × 10^6; Cell Yield (draining lymph nodes) ([7]; mouse 17, day 7): 16 × 10^6; Specific proliferation ([7]; mouse 17, day 7, antigen 100 μg/ml, three days in vitro): 22,236 cpm; response to cytochrome c ([7]; third mouse): responded normally to cytochrome c; enlargement of lymph nodes following immunization ([7]; two of the three mice): no enlargement of lymph nodes following immunization; anti-tumor properties, growth of Lewis lung carcinoma (Lewis lung carcinoma): growth inhibition of Lewis lung carcinoma in mice; High Responders ([8]; antibody titer greater than 1:5,120, day 23): 2/6; mice with titers greater than 1:5000 ([8]; day 23): 2 of the 6; Mean Titer ([8]; mean of the endpoint dilution, day 23): 18,613 ± 13,020; fraction of mice with a greatly reduced response to antigen ([8]; pilot study, proliferative data and antibody titers together): two thirds; % Inhibition of alloreactivity (T cells; 0.1 μg/ml (0.13 μM)): 69%; % Inhibition of alloreactivity (T cells; 0.2 μg/ml (0.25 μM)): 77%; % Inhibition of alloreactivity (T cells; 1.0 μg/ml (1.27 μM)): 85%; % Inhibition of alloreactivity (T cells; 2.5 μg/ml (3.18 μM)): 92%; effect on calcium ion transport [9]: affect calcium ion transport
